Columns and labels:
[1] = tested on: SUM159 orthotopic xenograft tumors; assay: TNBC SUM159 orthotopic xenograft tumor growth in SCID mice; format: in vivo, mouse; details: 5 mg/kg, i.p., 5 times per week, 45 days
Method: Orthotopic xenograft tumor models and chemical compound treatments: Four-week-old female SCID C.B17 mice (for TNBC SUM159 cell lines) were purchased from Harlan Inc. For establishing tumors, 2×10^6 cells were suspended in total of 100 μL PBS/Matrigel (1:1) and implanted orthotopically into the 4th inguinal mammary fat pads at both sides. Animal group size of six or more was estimated to have a high statistical power, based on power calculation (www.biomath.info/pgwer/) and 20 previous studies involving the same xenograft models. When the tumor volume was approximately 50 mm^3, the mice were randomized and then treated intraperitoneally (i.p.) with 100 μl of vehicle or RORγ inhibitors F18/No. 37, 5 mg/kg; GSK805, 5 mg/kg; GNE3500, 5 mg/kg. (in a formulation of 15% Cremophor EL, Calbiochem, 82.5% PBS, and 2.5% DMSO) for five times per week. Tumor growth was monitored by calipers with volume calculated using the equation: π/6 (length×width^2). Mouse body weight during the course of the study was also monitored. At the end of the studies, mice were killed and tumors were dissected and weighed.

[2] = tested on: prostate cancer C4-2B cells; assay: Cell viability (Cell-Titer GLO), 4 days, prostate cancer cells; format: cell-based, human
Method: The “No.” label for each compound corresponds to the “Structure No.” in Table 2 (e.g., “No. 36”=“Structure No. 36” in Table 2). Experiments were independently performed three times.
For cell viability, cells were seeded in 96-well plates at 1500-2500 cells per well (optimum density for growth, depending on the specific cell line) in a total volume of 100 μl media. Serially diluted compounds in 100 μl of media were added to the cells 12 hours later. After 4 days of incubation, Cell-Titer GLO reagents (Promega) were added and luminescence was measured on GLOMAX microplate luminometer (Promega), according to the manufacturer's instructions. All experimental points were set up as sextuplicate as biological replication and the entire experiments were repeated three times. The data are presented as percentage of viable cells with vehicle treated cells set as 100. The estimated in vitro IC50 values were calculated using GraphPad Prism 6 software.

## O=C(Cc1ccccc1[N+](=O)[O-])Nc1ccc(-c2ccc(C(O)(C(F)(F)F)C(F)(F)F)cc2F)cc1 [XY018, N-(2′-fluoro-4′-(1,1,1,3,3,3-hexafluoro-2-hydroxypropan-2-yl)-[1,1′-biphenyl]-4-yl)-2-(2-nitrophenyl)acetamide]
[1]
  orthotopic tumor growth inhibition: effectively inhibited the orthotopic TNBC tumor growth
[2]
  inhibition of growth and survival: strongly inhibited the growth and survival
